Laboratory results published in PMC3260207, “Site-Directed Mutations and the Polymorphic Variant Ala160Thr in the Human Thromboxane Receptor Uncover a Structural Role for Transmembrane Helix 4” (PLoS ONE, 2012).
Changes are numbered by the printed parent chain.

How the values were obtained:
Assay in all cases: Saturation radioligand binding with [3H] SQ 29,548, membranes
Conditions in all cases: picomoles of TP per milligram of total membrane protein, mean ± S.E
[1] = target: T1, TP V110A mutant (Homo sapiens, UniProt P21731, V110A)
T1 construct: expressed in transfected cells; HEK293T (calcium assays)
T1 sequence (P21731 1-343 V110A): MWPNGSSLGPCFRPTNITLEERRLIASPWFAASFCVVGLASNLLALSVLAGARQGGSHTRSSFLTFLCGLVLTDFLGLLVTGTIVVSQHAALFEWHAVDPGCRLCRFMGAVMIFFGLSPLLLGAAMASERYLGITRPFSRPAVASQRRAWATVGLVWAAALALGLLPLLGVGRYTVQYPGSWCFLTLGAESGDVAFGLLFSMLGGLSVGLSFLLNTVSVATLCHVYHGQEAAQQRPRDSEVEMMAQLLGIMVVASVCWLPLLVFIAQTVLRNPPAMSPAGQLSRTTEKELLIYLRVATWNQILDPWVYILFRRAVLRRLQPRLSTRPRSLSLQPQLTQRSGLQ
Method: (§1) Amino acid substitutions were introduced into the synthetic TPα gene carried by the expression vector pMT4 as described previously, [29]. DNA sequences of all the mutated genes were verified by automated DNA sequencing. To minimize variations in transfection efficiency, the total amount transfected DNA was kept constant in all cases at 1 µg of DNA per 7×10^5 cells. The wild type TP or mutant genes were expressed in COS-1 cells using a DEAE-dextran based transient transfection method, [29], and in HEK293T cells using lipofectamine 2000 (Invitrogen). Except unless specified, the membranes prepared from COS-1 cells were used for radioligand binding assays and immunoblots. For intracellular calcium determination assays and immunofluorescence imaging, HEK293T cells were used. For transient transfections of HEK293T cells using the plasmid pMT4, lipofectamine 2000 (Invitrogen) mediated transfection was used as described by the manufacturer. Membranes were prepared using Buffers A and B and as described previously, [29]. The protein concentration in the resuspended membrane pellet was determined using a modified DC protein assay kit from Bio-Rad Laboratories (Hercules, CA).
(§2) These were carried out in Buffer C for 60 min at room temperature, using 2 to 20 µg of membrane protein and different concentrations of [^3H] […] Binding of [^3H] […] Competition binding assays were performed using 4 nM [^3H] […] Binding was terminated by filtering under vacuum on GF/A filters (Millipore). Filter-bound radioactivity was measured using a liquid scintillation counter. Equilibrium dissociation constants (Kd) were determined from saturation isotherms using PRISM software version 5.0 (GraphPad Software Inc, San Diego, CA, USA). The Ki values were calculated from the IC50, using the equation of Cheng and Prusoff by PRISM software version 5.0.

[2] = target: T2, TP F114A mutant (Homo sapiens, UniProt P21731, F114A)
T2 construct: expressed in transfected cells; HEK293T (calcium assays)
T2 sequence (P21731 1-343 F114A): T1 sequence (P21731 1-343 V110A) with A110V, F114A
Method: as §1, §2

[3] = target: T3, TP A160V mutant (Homo sapiens, UniProt P21731, A160V)
T3 construct: expressed in transfected cells; HEK293T (calcium assays)
T3 sequence (P21731 1-343 A160V): T1 sequence (P21731 1-343 V110A) with A110V, A160V
Method: as §1, §2

[4] = target: T4, TP A160S mutant (Homo sapiens, UniProt P21731, A160S)
T4 construct: expressed in transfected cells; HEK293T (calcium assays)
T4 sequence (P21731 1-343 A160S): T1 sequence (P21731 1-343 V110A) with A110V, A160S
Method: as §1, §2

[5] = target: T5, TP A160T mutant (nsSNP variant) (Homo sapiens, UniProt P21731, A160T)
T5 construct: expressed in transfected cells; HEK293T (calcium assays)
T5 sequence (P21731 1-343 A160T): T1 sequence (P21731 1-343 V110A) with A110V, A160T
Method: as §1, §2

[6] = target: T6, TP G164A mutant (Homo sapiens, UniProt P21731, G164A)
T6 construct: expressed in transfected cells; HEK293T (calcium assays)
T6 sequence (P21731 1-343 G164A): T1 sequence (P21731 1-343 V110A) with A110V, G164A
Method: as §1, §2

O=C(O)CCC/C=C\C[C@@H]1[C@H](CNNC(=O)Nc2ccccc2)[C@H]2CC[C@@H]1O2 [SQ 29,548]
Bmax, binding maximum of the ligand SQ 29,548 for the receptor [1]: 1.8 ± 0.3 pmol/mg
Bmax, binding maximum of the ligand SQ 29,548 for the receptor [2]: 1.6 ± 0.3 pmol/mg
Bmax, binding maximum of the ligand SQ 29,548 for the receptor [3]: 1.9 ± 0.3 pmol/mg
Bmax, binding maximum of the ligand SQ 29,548 for the receptor [4]: 5.8 ± 0.5 pmol/mg
Bmax, binding maximum of the ligand SQ 29,548 for the receptor [5]: 1.8 ± 0.4 pmol/mg
Bmax, binding maximum of the ligand SQ 29,548 for the receptor [6]: 6.3 ± 0.4 pmol/mg
